From patent publication US20220313587A1, “Oral Care Compositions” (Colgate-Palmolive Company, priority 2019, published 2022)

Assays:
[1] = tested on: gingival epithelial cells (GEC); assay: Topical application of vitamin D to gingival epithelial cells, LL-37 expression; assay type: cell-based
CAP-18 (LL-37) = assay: Relative gene expression by qPCR (LL-37 probe) in oral tissue model after treatment with toothpaste slurry; assay type: cell-based, human; details: fresh toothpaste slurry 1:3 in water, 2 minutes treatment, overnight incubation, normalized with GAPDH
Method: (§1) A toothpaste slurry was prepared by diluting the toothpaste formulation of Table 1 with deionized water in a 1:3 ratio. The slurry was applied on top of tissues that modeled the human oral cavity. After 2 minutes of the treatment, the tissues were rinsed with PBS twice or three times. Medium in wells was replaced with fresh medium and incubated in a cell culture incubator for overnight. Tissues were harvested and processed for RNA isolation and c-DNA preparation. Two probes were used for qPCR; CAP-18 (LL-37) and Cyp24A1. Relative levels of expressions were assessed after normalization with GAPDH (internal control).
(§2) The data is consistent for both LL-37 and Cyp24A1.

Cyp24A1 = assay: Relative gene expression by qPCR (Cyp24A1 probe) in oral tissue model after treatment with toothpaste slurry; assay type: cell-based, human; details: fresh toothpaste slurry 1:3 in water, 2 minutes treatment, overnight incubation, normalized with GAPDH
Method: as §1, §2

Structure (SMILES) | expression of anti-microbial peptide (LL-37) proteins [1] | Relative Gene Expression after Treatment, LL-37, Mean (CAP-18 (LL-37)) | Relative Gene Expression after Treatment, Cyp24A1, Mean (Cyp24A1)
C=C1/C(=C\C=C2/CCC[C@]3(C)[C@@H]([C@H](C)CCCC(C)(C)O)CC[C@@H]23)C[C@@H](O)C[C@@H]1O [1,25(OH)2D3, 1,25-dihydroxycholecalciferol] | induces enhanced expression |  | 
C=C1CC[C@H](O)C/C1=C/C=C1\CCC[C@]2(C)[C@@H]([C@H](C)CCCC(C)C)CC[C@@H]12 [Neat Active, cholecalciferol] |  | 2.0 | 4.3
